# Laboratory results as given in US7820624B2, “Peptide ligands” (ICH Productions Limited, priority 2003, dated 2010).
# Columns and labels:
# [1] = tested on: HepG2 cells; assay: Adenoviral transduction of HepG2 cells; type: cell-based, human; conditions: 10,000 particles per cell in OptiMEM
# Description: (§1) Day 6 dendritic cells (see Example 1(v) above), or mouse bone marrow derived dendritic cells or mouse Sca1+ve stem cells, see (i) and (ii) above, were plated at 5×10^4 cells per well in a 48 well plate in 500 μl complete medium and allowed to settle for 3 hours at 37° C. Transductions were carried out in complete media, with virus being added at 100,000 viral particles/cell for 24 hours. Cells were harvested by scraping, spun down at 650 g (2000 rpm) for 5 min, resuspended in 300 μl PBS, and kept on ice before analysis. Viral transduction as determined by percentage of GFP positive cells was measured by FACS analysis. To measure percentage viability, 10 μl of 7-amino-actinomycin D (7AAD; Sigma, Poole, Dorset) was added immediately prior to analysis. Viral transduction of macrophages was carried out at 10,000 particles/cell in medium containing 2.5% FCS. […] Cells were then washed twice in PBS, trypsinised, triplicate wells pooled, spun down at 350×g for 5 min and resuspended in 300 μl PBS before analysis by flow cytometry where cell viability was to be measured, 10 μl 7AAD was added just prior to analysis.
# (§2) For transduction of these other cell types, cells were seeded overnight at 5×10^4 cells per well in 24 well plates in the appropriate media. […] Where cell viability was to be measured, 10 μl 7-amino-actinomycin D (7AAD; Sigma, Poole, Dorset) was added just prior to analysis. […]
# [2] = tested on: Neuro-2A cells; assay: Adenoviral transduction of Neuro-2A cells; type: cell-based, mouse; conditions: 10,000 particles per cell in OptiMEM
# Description: as §1, §2
# [3] = tested on: human monocyte-derived immature dendritic cells; type: cell-based; conditions: 100,000 viral particles/cell
# From the text: Ad5 particles with the DC-binding peptides incorporated into the HI loop of the fibre protein were produced essentially as described previously ^12. Complementary oligonucleotides encoding the peptide sequences SHVKLNS [SEQ. ID. NO.:29] (5′ CC GGAAGCCACGTGAAGCTGAACAGCG 3′ [SEQ. ID. NO.:58] and 5′ CC GGCGCTGTTCAGCTTCACGTG GCTT 3′[SEQ. ID. NO.:59]) or APSNSTA [SEQ. ID. NO.:15] (5′ CC GGAGCCCCCAGCAACAGCACCGCCG 3′ [SEQ. ID. NO.:61] and 5′ CC GGCGGCGGTGCTGTTGCTGGG GGCT 3′ [SEQ. ID. NO.:62]) were synthesized (Operon Technologies, Alameda Calif. U.S.A.). The oligo pairs were then kinased, annealed, and ligated into the unique BspE1 site of pDV137 ^12, an expression construct encoding an Ad5 fibre protein with a double point mutant (KO1) which blocks CAR binding and a linker/restriction site in the HI loop, to create pDV178 (SHVKLNS) and pDV179 (APSNSTA). Following sequence confirmation, the plasmids were used to trans-complement the fibre-deleted vector Ad5.GFP.δF^18 by transient transfection into 293 cells as described ^19. Viral particles were purified by freeze/thaw lysis and CsCl gradient centrifugation and dialyzed into 40 mM TRIS-pH 8.1/0.9% NaCl/10% glycerol and stored at −80° C. Virus was quantified by protein assay (BioRad, Hercules Calif., U.S.A.) against BSA standards and using the relation 1 μg viral protein=4×10^9 viral particles.
# Retargeted adenoviruses carrying a peptide A or B were used for the transduction experiments described below. Wild type adenovirus type 5 and type 5 adenovirus having a KO1 fibre, all supplied by Dr Dan von Seggern, and as described in Nicklin 2001 Mol Ther 2001 Dec.; 4(6):534-42), were used as controls.
# (§3) Day 6 dendritic cells (see Example 1(v) above), or mouse bone marrow derived dendritic cells or mouse Sca1+ve stem cells, see (i) and (ii) above, were plated at 5×10^4 cells per well in a 48 well plate in 500 μl complete medium and allowed to settle for 3 hours at 37° C. Transductions were carried out in complete media, with virus being added at 100,000 viral particles/cell for 24 hours. Cells were harvested by scraping, spun down at 650 g (2000 rpm) for 5 min, resuspended in 300 μl PBS, and kept on ice before analysis. Viral transduction as determined by percentage of GFP positive cells was measured by FACS analysis. To measure percentage viability, 10 μl of 7-amino-actinomycin D (7AAD; Sigma, Poole, Dorset) was added immediately prior to analysis. Viral transduction of macrophages was carried out at 10,000 particles/cell in medium containing 2.5% FCS. For other cell types, cells were seeded overnight at 5×10^4 cells per well in 24-well plates in the appropriate media. Adenovirus was added in OptiMEM at 10,000 viral particles/cell, 1 ml per well in triplicate and incubated for 24 h at 37° C. Cells were then washed twice in PBS, trypsinised, triplicate wells pooled, spun down at 350×g for 5 min and resuspended in 300 μl PBS before analysis by flow cytometry where cell viability was to be measured, 10 μl 7AAD was added just prior to analysis.
# Cells were pooled from three separate transduction experiments for the calculation of results.
# [4] = tested on: mouse Sca1-positive stem cells; assay: Adenoviral transduction of mouse Sca1+ve stem cells; type: cell-based
# Description: Mouse bone marrow cells were isolated as above and Sca1+ve cells were isolated using MACs Sca1 microbeads (Miltenyi Biotec, Bisley, U.K.). These cells were plated at 7×10^4 cells/500 μl in RPMI with Glutamax-1 containing 30% FCS and penicillin/streptomycin and the following cytokines murine SCF (50 ng/ml; Preprotech, London, UK), IL-6 (20 ng/ml; Preprotech, London, UK) and Flt3-L (10 ng/ml) (R&D Systems, Oxford, U. K.).
# as §1, with “analysis.” for “analysis. To measure percentage viability, 10 μl of 7-amino-actinomycin D (7AAD; Sigma, Poole, Dorset) was added immediately prior to analysis. Viral transduction of macrophages was carried out at 10,000 particles/cell in medium containing 2.5% FCS.”
# [5] = tested on: primary mouse dendritic cells; assay: Adenoviral transduction of mouse dendritic cells; type: cell-based; conditions: bone marrow derived DCs
# Description: Mouse dendritic cells were prepared from whole bone marrow flushed from the marrow cavities of the femur and tibia of 5-7 week old A/J mice and cultured in Hepes buffered RPMI+Glutamax (InVitrogen, Paisley, U. K.) supplemented with 10% FCS, penicillin/streptomycin and 20 ng/ml recombinant GM-CSF. Cytokines were added to the same concentration on day 3 and the dendritic cells isolated from the floating cell fraction by MACs CD11c microbeads (Miltenyi Biotec, Bisley, U. K.) on day 6.
# as §1, with “analysis.” for “analysis. To measure percentage viability, 10 μl of 7-amino-actinomycin D (7AAD; Sigma, Poole, Dorset) was added immediately prior to analysis. Viral transduction of macrophages was carried out at 10,000 particles/cell in medium containing 2.5% FCS.”
# [6] = tested on: 1HAEo- cells; assay: Adenoviral transduction of 1HAEo- cells; type: cell-based, human; conditions: 10,000 particles per cell in OptiMEM
# Description: as §1, §2
# [7] = tested on: HMEC-1 cells; assay: Adenoviral transduction of HMEC-1 cells; type: cell-based, human; conditions: 10,000 particles per cell in OptiMEM
# Description: as §1, §2
# [8] = tested on: day 6 immature dendritic cells; assay: Maturation of adenovirus-transduced dendritic cells in response to LPS (marker flow cytometry); type: cell-based, human; conditions: LPS 50 ng/ml; virus 100,000 particles per cell
# Description: Day 6 immature dendritic cells were infected with retargeted Ad or Ad5 at 100,000 particles per cell in complete medium for 24 hours, with E. coli 026:B6 lipopolysaccharide (LPS) added following 3 hours incubation at a concentration of 50 ng/ml. As controls, dendritic cells were either incubated in complete medium for 24 hours or matured by the addition of LPS in complete medium for 24 hours, In all samples IL-4 and GM-CSF were present in the complete medium at 25 ng/ml and 100 ng/ml respectively. Cells were then phenotyped by staining as follows: a minimum of 5×10^4 cells in a volume of less than 2 ml medium were added to the recommended amount of antibody and incubated for 20 min on ice. 2 ml of ice-cold PBS was added before centrifugation at 300×g for 5 min at 4° C. The supernatant was flicked off and the pellet resuspended in 300 μl ice cold PBS. Cells from each sample were stained with antibodies to HLA-DR, CD40, CD80, CD83, CD86 and isotype matched control antibodies. Where cell viability was also measured, […] of 7AAD was added immediately prior to analysis. Cells were analysed by flow cytometry using a Epics XL (Beckman Coulter, High Wycombe, UK.) and the EXPO32 analysis software (Beckman Coulter).
# [9] = tested on: human monocyte-derived primary macrophages; assay: Adenoviral transduction of primary macrophages; type: cell-based; conditions: 10,000 viral particles/cell in 2.5% serum
# Description: as §3
# 10 mls of peripheral blood were diluted 1:1 with HBSS then layered on Lymphoprep (Nycomed), spun at 750 g for 30 min and purified […] were isolated from the interface. Excess Lymphoprep was removed by spinning cells down at 250 g for 10 min and any platelets present were removed by washing in HBSS twice, spinning the cells at 1200 rpm for 10 min each time. Monocytes were then isolated using MACs CD14 microbeads as described in the manufacturer's protocol. The mononuclear cells were plated into a […] flask in 10% FCS, RPMI for 1-2 hours (1 flask per 10 ml blood) before removing the supernatant and adding fresh 10% FCS, RPMI+10 ng/ml MCSF (macrophage colony stimulating factor). Half the medium was replaced with fresh 10% FCS, RPMI+MCSF (10 ng/ml) after 48 hours and the cells were used at day 6, harvesting by scraping the cells from the well.
# Viral transduction was carried out at 10,000 particles/cell in medium containing 2.5% FCS. Viral transduction as determined by percentage of GFP positive cells was measured by FACS analysis. Cells were pooled from three separate transduction experiments for the calculation of results.
substance,measurement,setting,value
APSNSTA (Synthetic peptide binding to dendritic cells),"Transduction, % cells transduced",[1],79.7%
same,"Transduction, % GFP-positive cells",[2],53.7%
same,"Transduction (% GFP positive cells), donor A","[3]; complete medium, 24 hours, donor A",65.1%
same,"Transduction (% GFP positive cells), donor B","[3]; complete medium, 24 hours, donor B",78.9%
same,"Percentage cell death, donor A","[3]; donor A, 7AAD",(6.6) %
same,"Percentage cell death, donor B","[3]; donor B, 7AAD",(11.6) %
same,Transduction efficiency,[4],5.4%
same,Transduction efficiency,[5],54.1%
same,"Transduction, % cells transduced",[6],79%
same,"Transduction, % cells transduced",[7],94.2%
same,CD40 positive cells,[8],9.8%
same,CD80 positive cells,[8],10.7%
same,CD83 positive cells,[8],18.0%
same,CD86 positive cells,[8],96.7%
same,HLA-DR positive cells,[8],72.9%
same,"Transduction, % cells transduced",[9],34.6%
same,"Transduction, % cells transduced",[9]; listed as B,34.6%
